The values that follow come from patent US11559575B2, “Multi-epitopic peptide compounds and vaccines against leishmaniasis” (INSTITUT DE RECHERCHE POUR LE DEVELOPPEMENT, priority 2018, dated 2023).

“Also recorded” adds a separate entry of the source.

Test [1] relates to HLA alleles of class I. As to the kind of experiment: Affinity of epitopes for HLA alleles of class I. The class given is binding, human. Particulars: for Concatenation affinity for HLA allele of class I: LmLRAB (IA, IB, IC) epitopes, Table 2; for Affinity for the HLA alleles of class I: H2B-1 epitopes, Table 1. An excerpt:
The multiepitopic peptide compounds (24 to 40-mer), having a high affinity with a maximized number of HLA molecules of class I and of class II, such as the affinities for the alleles HLA of class I and HLA of class II of the epitopes in the peptides of the sequences SEQ ID NO: 22, 23, 65, 66, 69, 73, 77, 96, 97, 137, 138, and 157, 185, have a high immunoprevalent potential corresponding to an optimal vaccine coverage, in particular for the populations concerned. The degree of coverage of the peptide compounds of the invention show a very high added value compared with the peptides of the prior art.

The subject of test [2] is HLA supertypes of class I. Description: Affinity of epitopes for HLA supertypes of class I. It counts as binding, human. Particulars: for Affinity for HLA supertypes of class I: LmLRAB (IA, IB, IC) epitopes, Table 2; for Affinity for the HLA supertypes of class I: H2B-1 epitopes, Table 1. The text has this: HLA molecules are highly polymorphous. This is because there exist more than 2500 HLA proteins of class I (HLA-I) and more than 1000 HLA proteins of class II (HLA-II). However, some of these HLA molecules, close in sequence and in spatial conformation, may have epitopes common to the T cells. The grouping of several thousands of HLA molecules is at the present time described in a little more than 20 or so categories, referred to as “HLA supertypes” having epitopes that are very well preserved for each supertype.

Test [3] has as its system CD4+ T cells of a naive individual (MPL10). Description: IFN-γ ELISPOT with CD4+ T cells and autologous dendritic cells of a naive individual (long protocol, three stimulations). The class given is cell-based, human. How it is done: The immunogenicity was evaluated, with combinations of peptides (combination corresponding to the “Pool H”) at 1 μM for each peptide, from samplings of blood of naive individuals and according to a long protocol with at least three successive stimulations. An IFN-γ ELISPOT test for measuring the frequency of the pre-existing naive T cells and the amplitude of the specific naive T repertoire for each peptide, was performed with the CD4+ T cells and the autologous dendritic cells of a naive individual in the presence or absence of the mixture of peptides, or in the presence of each peptide individually. […] The “Pool H” combination was used either with peptides not modified at the amino-terminal end and with amidation of the carboxy-terminal end, or with peptides chemically modified by a palmitoyl tail at the amino-terminal end and with amidation of the carboxy-terminal end.
The evaluation of the immunogenicity properties of peptide compounds according to the invention in naive individuals, persons who have never been in contact with the Leishmania parasite, is an important factor in predicting the efficacy of a peptide vaccine (Kwok WW et al, 2012, Frequency of epitope-specific naive CD4(+) T cells correlates with immunodominance in the human memory repertoire; Castelli F A et al, 2007, Differential capacity of T cell priming in naive donors of promiscuous CD4+ T cell epitopes of HCV NS3 and Core proteins). Immunogenicity is evaluated in vitro by measuring the frequency of the pre-existing naive T cells and the amplitude of the naive T repertoire specific for each compound. The evaluation is carried out using blood samples from naive individuals and in accordance with a long protocol (Castelli F A, et al. 2007 as aforementioned) putting purified T lymphocytes in contact with autologous dendritic cells previously incubated with the peptides of the invention. The combination of peptides used is composed of: SEQ ID NO: 23, SEQ ID NO: 66, SEQ ID NO: 73, SEQ ID NO: 77, SEQ ID NO: 97, SEQ ID NO: 138, SEQ ID NO: 157, SEQ ID NO: 185, SEQ ID NO: B11, SEQ ID NO: B12 and SEQ ID NO: B13. The compounds were synthesized chemically without amino-terminal modification and with carboxy-terminal (peptide-NH2) amidation (NH2). After three successive stimulations at intervals of seven days of the CD4+ T cells of a naive individual (MPL10; Établissement français du sang de Toulouse), an IFN-γ ELISPOT was carried out with the cells in the presence or absence of the mixture of peptides, or in the presence of each compound individually. […] Each positive line responds to at least one of the peptides of the present invention. The MPL10-3 line responds to the peptides SEQ ID NO: 73 and SEQ ID NO: 157. The MPL10-4 line responds to the peptides SEQ ID NO: 23, SEQ ID NO: 73, SEQ ID NO: 77, SEQ ID NO: 97, SEQ ID NO: 138 and SEQ ID NO: 157. The MPL10-7 line responds to the peptides SEQ ID NO: 77, SEQ ID NO: 97 and SEQ ID NO: 157. The MPL10-8 line responds to the peptides SEQ ID NO: 66, SEQ ID NO: 73, SEQ ID NO: 97, SEQ ID NO: 138 and SEQ ID NO: 157. The MPL10-10 line responds to the peptides SEQ ID NO: 66, SEQ ID NO: 73, SEQ ID NO: 77, SEQ ID NO: 97, SEQ ID NO: 138, SEQ ID NO: 157 and SEQ ID NO: 185. And the MPL10-12 line responds to the peptides SEQ ID NO: 66, SEQ ID NO: 157 and SEQ ID NO: 185.
The evaluation of the immunogenicity properties of peptide compounds of the invention in the same naive individual (MPL10) but with chemically synthesized compounds with the addition of a palmitoylated tail at the amino-terminal end and with an NH2 group at the carboxy-terminal end (PAL-peptide-NH2) was also performed. The same combination of peptides as before was used. After three stimulations with the mixture of PAL-peptide-NH2 peptides, an IFN-g ELISPOT was carried out with the cells in the presence or absence of the mixture of peptides, or in the presence of each peptide individually. […]

The mark [4] stands for this setting: MPL10-PAL-2 line, PAL-peptide-NH2.
Where [5] appears, read: MPL10-PAL-3 line, PAL-peptide-NH2.

With “ASFRSTEAI (Leishmania major) [SEQ ID NO: 75]”, the “Concatenation affinity for HLA allele of class I” value in test [1] is on record as “HLA-A*32:01,; also recorded: HLA-B*15:03,; also recorded: HLA-B*1517”. Also, the “Affinity for HLA supertypes of class I” value in test [2] is reported as “HLA-A*01,; also recorded: HLA-B*27,; also recorded: HLA-B*58”.
Turning to “KARYRFAQGEHDIRLPENAFVIARYTQGSSKAGF (Leishmania major) [SEQ ID NO: 73]”, the “IFN-γ ELISPOT response of specific line to individual peptide” value (“IFN-γ ELISPOT response of specific line” for short) in test [3] (MPL10-3 line, peptide-NH2) is on record as “responds”; in test [3] (MPL10-4 line, peptide-NH2) it was “responds”; in test [3] (MPL10-8 line, peptide-NH2), “responds”; in test [3] (MPL10-10 line, peptide-NH2) it was “responds”; in test [3] (setting [4]) it was “responds”; in test [3] (setting [5]) it was “responds”.
As for “SSIMVVANK (Leishmania major) [SEQ ID NO: 76]”, the “Concatenation affinity for HLA allele of class I” value in test [1] was “HLA-A*30:01,; also recorded: HLA-A*03:01,; also recorded: HLA-A*11:01,; also recorded: HLA-A*31:01,; also recorded: HLA-A*68:01”. The “Affinity for HLA supertypes of class I” value in test [2] is on record as “HLA-A*01/HLA-A*03,”.
Consider “IKAINAQMSM (Leishmania major) [SEQ ID NO: 2]”, for which the “Affinity for the HLA alleles of class I” value in test [1] is “HLA-B*57:01; also recorded: HLA-B*15:01,”. In addition, in test [2], the “Affinity for the HLA supertypes of class I” value was “HLA-B*62; also recorded: HLA-B*58,”.
Consider “MMERICTEAA (Leishmania major) [SEQ ID NO: 7]”, for which the “Affinity for the HLA alleles of class I” value in test [1] is reported as “HLA-A*02:03”. Moreover, the “Affinity for the HLA supertypes of class I” value in test [2] is on record as “HLA-A*02”.
“KAARSARSGEGYFLTDEKTSLVYGDGG (listed as Leishmania infantum) [SEQ ID NO: 157]”: the “IFN-γ ELISPOT response of specific line” value in test [3] (MPL10-3 line, peptide-NH2) is reported as “responds”; in test [3] (MPL10-4 line, peptide-NH2), “responds”; in test [3] (MPL10-7 line, peptide-NH2), “responds”; in test [3] (MPL10-8 line, peptide-NH2), “responds”; in test [3] (MPL10-10 line, peptide-NH2) it was “responds”; in test [3] (MPL10-12 line, peptide-NH2) it was “responds”. The “IFN-γ ELISPOT response of specific line” value in test [3] (setting [4]) and in test [3] (setting [5]) was “responds” throughout.
With “MSHRTMKIK (Leishmania major) [SEQ ID NO: 8]”, in test [1], the “Affinity for the HLA alleles of class I” value is given as “HLA-A*30:01,; also recorded: HLA-A*03:01,; also recorded: HLA-A*11:01”. Moreover, the “Affinity for the HLA supertypes of class I” value in test [2] is “HLA-A*01/HLA-A*03,”.
The matching figures for “MERICTEAA (Leishmania major) [SEQ ID NO: 6]”: “HLA-B*40:02,; also recorded: HLA-B*45” and “HLA-B*44”.
In the case of “NAQMSMMER (Leishmania major) [SEQ ID NO: 14]”, the “Affinity for the HLA alleles of class I” value in test [1] is on record as “HLA-A*68:01,; also recorded: HLA-A*33:01,; also recorded: HLA-A*31:01”. For the same substance, the “Affinity for the HLA supertypes of class I” value in test [2] is on record as “HLA-A*03”.
In the case of “KEMPSGSDYSHMSIRDLDFSNMGLLLSGT (KEMPSGSDYSHSMIRDLDFSNMGLLLSGT; listed as Leishmania infantum) [SEQ ID NO: 185]”, the “IFN-γ ELISPOT response of specific line” value in test [3] (MPL10-10 line, peptide-NH2) is “responds”; in test [3] (MPL10-12 line, peptide-NH2), “responds”; in test [3] (setting [4]), “responds”; in test [3] (setting [5]), “responds”.
Take “SMSHRTMKS (Leishmania major) [SEQ ID NO: 18]”: the “Affinity for the HLA alleles of class I” value in test [1] is recorded as “HLA-A*02:03”. The “Affinity for the HLA supertypes of class I” value in test [2] was “HLA-A*02”.
Consider “SMSHRTMK (Leishmania major) [SEQ ID NO: 15]”, for which the “Affinity for the HLA alleles of class I” value in test [1] is “HLA-A*03:01”. In test [2], the “Affinity for the HLA supertypes of class I” value is listed as “HLA-A*03”.
For “MSMSHRTM (Leishmania major) [SEQ ID NO: 11]” the same measures were “HLA-B*08:01” and “HLA-B*08”.
In the case of “SEQ ID NO: 66: multiepitopic peptide compound of overlapping H2B epitopes of sequences SEQ ID NO: 24 to 64; sequence not printed (KGRKPKRSWNVYVGRSLKAINAQMSMSHRTMKIV; Leishmania major)”, the “IFN-γ ELISPOT response of specific line” value in test [3] (MPL10-8 line, peptide-NH2) is given as “responds”; in test [3] (MPL10-10 line, peptide-NH2), “responds”; in test [3] (MPL10-12 line, peptide-NH2) it was “responds”; in test [3] (setting [4]), “responds”; in test [3] (setting [5]) it was “responds”.
Take “KARYMSMSHRTMKSMSHRTMKIKAINAQMSMMERICTEAA (Leishmania major) [SEQ ID NO: 23]”: the “IFN-γ ELISPOT response of specific line” value is given as “responds” in test [3] (MPL10-4 line, peptide-NH2) and “responds” in test [3] (setting [5]).
In the case of “KARYMPHVDQSSIARYASFRSTEAIRYSSIMVVANK (Leishmania major) [SEQ ID NO: 77]”, the “IFN-γ ELISPOT response of specific line” value is recorded as “responds” in test [3] (MPL10-4 line, peptide-NH2); “responds” in test [3] (MPL10-7 line, peptide-NH2); “responds” in test [3] (MPL10-10 line, peptide-NH2); “responds” in test [3] (setting [5]).
Consider “KGRSENAIVTSRKVQEEVFDLFTDVHYSEVSAKTK (Leishmania major) [SEQ ID NO: 138]”, for which the “IFN-γ ELISPOT response of specific line” value is listed as “responds” in test [3] (MPL10-4 line, peptide-NH2); “responds” in test [3] (MPL10-8 line, peptide-NH2); “responds” in test [3] (MPL10-10 line, peptide-NH2); “responds” in test [3] (setting [5]).
As to “KGRLHSVVGRHLSIVADHMPHLDQ (Leishmania major) [SEQ ID NO: 97]”, the “IFN-γ ELISPOT response of specific line” value is “responds” in test [3] (MPL10-4 line, peptide-NH2); “responds” in test [3] (MPL10-7 line, peptide-NH2); “responds” in test [3] (MPL10-8 line, peptide-NH2); “responds” in test [3] (MPL10-10 line, peptide-NH2); “responds” in test [3] (setting [5]).
Take “MSMSHRTMKSMSHRTMKIKAINAQMSMMERICTEAA (Leishmania major) [SEQ ID NO: 22]”: in test [3] (setting [4]), the “IFN-γ ELISPOT response of specific line” value was “responds”.
